Experimental findings from BindingDB's records for doi:10.1016/s0960-894x(98)00106-1 (Oregon State University, 1999) are described below.

This experiment can be described thus: Compound was evaluated for the inhibition of L-pipecolate oxidase(LPO) isolated from frozen Rhesus monkey liver.

One may read the IC50 as the midpoint of a concentration-inhibition curve. In the case of `O=C(O)[C@H]1NC[C@@H]2O[C@@H]21` [(1R,2S,5S)-6-Oxa-3-aza-bicyclo[3.1.0]hexane-2-carboxylic acid], inhibition was half-maximal at 200 µM (IC50).
